# According to PubChem BioAssay AID330 (DTP/NCI, 2004):
# Values joined by “and” are separate entries in the source; they are usually repeats but may differ in a detail not shown here. Equal values may be shown once. Inconclusive results and toxic doses are left out.
# Test system: P388 leukemia ip, CD2F1 mice, survival T/C
# Assay: NCI In Vivo Anticancer Drug Screen. Data for tumor model P388 Leukemia (intraperitoneal) in CD2F1 (CDF1) mice
# Settings: endpoint: median survival time, higher = longer survival
# Procedure, shortened: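 Mice carrying the transplanted tumor received test compound or vehicle. Survival was recorded in each group, and the value is the treated-group measurement divided by that of the vehicle-treated control group.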
# [1] = dose: 12.5 mg/kg/injection, schedule: Q01DX009 (ip), vehicle: suspension in saline
# [2] = dose: 25.0 mg/kg/injection, schedule: Q01DX009 (ip), vehicle: suspension in saline
# [3] = dose: 50.0 mg/kg/injection, schedule: Q01DX009 (ip), vehicle: saline
# [4] = dose: 50.0 mg/kg/injection, schedule: Q01DX009 (ip), vehicle: saline with Tween-80
# [5] = dose: 100.0 mg/kg/injection, schedule: Q01DX009 (ip), vehicle: saline with Tween-80
# [6] = dose: 60.0 mg/kg/injection, schedule: Q01DX005 (ip), vehicle: saline with Tween-80
# [7] = dose: 120.0 mg/kg/injection, schedule: Q01DX005 (ip), vehicle: saline with Tween-80
# [8] = dose: 60.0 mg/kg/injection, schedule: Q01DX005 (ip), vehicle: saline
# [9] = dose: 120.0 mg/kg/injection, schedule: Q01DX005 (ip), vehicle: saline
# [10] = dose: 240.0 mg/kg/injection, schedule: Q01DX005 (ip), vehicle: saline
structure (smiles),measurement,setting,value
Cc1ccc(S(=O)(=O)c2ccc(Sc3cccc[n+]3[O-])c3nonc23)cc1,T/C,"dose: 6.25 mg/kg/injection, schedule: Q01DX009 (ip), vehicle: saline",103 % of control
same,T/C,"dose: 12.5 mg/kg/injection, schedule: Q01DX009 (ip), vehicle: saline",116 % of control
same,T/C,[1],110 % of control
same,T/C,"dose: 25.0 mg/kg/injection, schedule: Q01DX009 (ip), vehicle: saline",100 % of control
same,T/C,[2],121 % of control
same,T/C,[3],103 % of control
CC(C)(C)N=C(CCNc1ccccc1Cl)Nc1ccccc1Cl,T/C,[4],103 % of control
same,T/C,[5],103 % of control
same,T/C,"dose: 200.0 mg/kg/injection, schedule: Q01DX009 (ip), vehicle: saline with Tween-80",86 % of control
O=C1CC(c2ccccc2)C(c2ccccc2)C1 (stereo not drawn),T/C,"dose: 50.0 mg/kg/injection, schedule: Q01DX009 (ip), vehicle: Klucel (hydroxypropylcellulose) (HPC)",94 % of control
same,T/C,"dose: 100.0 mg/kg/injection, schedule: Q01DX009 (ip), vehicle: Klucel (hydroxypropylcellulose) (HPC)",97 % of control
same,T/C,"dose: 200.0 mg/kg/injection, schedule: Q01DX009 (ip), vehicle: Klucel (hydroxypropylcellulose) (HPC)",93 % of control
CC1CC(C)(C)OB(OCCc2ccc(Cl)cc2Cl)O1 (stereo not drawn),T/C,[3],99 % of control
same,T/C,"dose: 100.0 mg/kg/injection, schedule: Q01DX009 (ip), vehicle: saline",102 % of control
same,T/C,"dose: 200.0 mg/kg/injection, schedule: Q01DX009 (ip), vehicle: saline",100 % of control
O=c1[nH]c(=O)n(C(c2ccccc2)c2ccccc2)cc1F,T/C,[1],100 % of control
same,T/C,[2],89 % of control
same,T/C,"dose: 50.0 mg/kg/injection, schedule: Q01DX009 (ip), vehicle: suspension in saline",99 % of control
same,T/C,"dose: 75.0 mg/kg/injection, schedule: Q01DX009 (ip), vehicle: suspension in saline",101 % of control
same,T/C,"dose: 100.0 mg/kg/injection, schedule: Q01DX009 (ip), vehicle: suspension in saline",94 % of control
same,T/C,"dose: 150.0 mg/kg/injection, schedule: Q01DX009 (ip), vehicle: suspension in saline",90 % of control
COc1cc(OC)c(NC(=O)ON2C(=O)c3ccccc3C2=O)cc1Cl,T/C,"dose: 12.5 mg/kg/injection, schedule: Q01DX009 (ip), vehicle: saline with Tween-80",119 % of control
same,T/C,"dose: 25.0 mg/kg/injection, schedule: Q01DX009 (ip), vehicle: saline with Tween-80",122 % of control
same,T/C,[4],122 % of control
same,T/C,[5],110 % of control
C=C(NC(=O)C(=C)NC(=O)c1csc(C2=NC3c4csc(n4)C4NC(=O)c5csc(n5)C(C(C)(O)C(C)O)NC(=O)C5CSC(=N5)/C(=C/C)NC(=O)C(C(C)O)NC(=O)c5csc(n5)C3(CC2)NC(=O)C(C)NC(=O)C(=C)NC(=O)C(=C)NC(=O)C(C(C)C)NC2C=Cc3c(C(C)O)cc(nc3C2O)C(=O)OC4C)n1)C(N)=O (stereo not drawn),T/C,[3],150 % of control
Cc1c(O)c(=O)ccn1C1OC(CO)C(O)C1O (stereo not drawn),T/C,"dose: 25.0 mg/kg/injection, schedule: Q01DX005 (ip), vehicle: saline",99 % of control
same,T/C,"dose: 50.0 mg/kg/injection, schedule: Q01DX005 (ip), vehicle: saline",104 % of control
same,T/C,"dose: 100.0 mg/kg/injection, schedule: Q01DX005 (ip), vehicle: saline",99 % of control
same,T/C,"dose: 200.0 mg/kg/injection, schedule: Q01DX005 (ip), vehicle: saline",104 % of control
same,T/C,"dose: 400.0 mg/kg/injection, schedule: Q01DX005 (ip), vehicle: saline",105 % of control
CC(C)(Br)C(=O)/C=C/c1ccccc1,T/C,[6],105 % of control
same,T/C,[7],115 % of control
CNC(=O)c1nnn(Cc2ccc(OC)cc2)c1Cl,T/C,"dose: 50.0 mg/kg/injection, schedule: Q01DX005 (ip), vehicle: Klucel (hydroxypropylcellulose) (HPC)",91 % of control
same,T/C,"dose: 100.0 mg/kg/injection, schedule: Q01DX005 (ip), vehicle: Klucel (hydroxypropylcellulose) (HPC)",100 % of control
same,T/C,"dose: 200.0 mg/kg/injection, schedule: Q01DX005 (ip), vehicle: Klucel (hydroxypropylcellulose) (HPC)",100 % of control
Nc1[nH]c(=O)[nH]c(=O)c1N=O,T/C,"dose: 60.0 mg/kg/injection, schedule: Q01DX005 (ip), vehicle: Klucel (hydroxypropylcellulose) (HPC)",101 % of control and 96 % of control
same,T/C,"dose: 120.0 mg/kg/injection, schedule: Q01DX005 (ip), vehicle: Klucel (hydroxypropylcellulose) (HPC)",101 % of control and 108 % of control
same,T/C,"dose: 240.0 mg/kg/injection, schedule: Q01DX005 (ip), vehicle: Klucel (hydroxypropylcellulose) (HPC)",104 % of control and 98 % of control
COC1c2ccccc2CC(c2ccccc2)=NN1C(C)=O (stereo not drawn),T/C,[8],100 % of control
same,T/C,[9],102 % of control
same,T/C,[10],97 % of control
O=C1OCC/C1=C\N1CCCCC1,T/C,[8],102 % of control
same,T/C,[9],100 % of control
same,T/C,[10],106 % of control
CC(C)(C)N1OC1C(Cl)(Cl)Cl (stereo not drawn),T/C,[6],101 % of control
same,T/C,[7],104 % of control
same,T/C,"dose: 240.0 mg/kg/injection, schedule: Q01DX005 (ip), vehicle: saline with Tween-80",104 % of control
